Assay [1] relates to N. tabacum. As to the kind of experiment: Calli regeneration under hygromycin selection after Agrobacterium-mediated transformation of leaves. The format is in vivo, Nicotiana tabacum. The settings on record: for Calli regenerated and transplanted: total: 20 leaves transformed. The protocol:
Seeds of tobacco cultivar Big Havana were surface-sterilized with a solution containing 1% bleach and 0.05% Tween-80 for about 3 minutes and then rinsed twice with sterile distilled water for about 5 minutes. Surface-sterilized seeds were plated in 100 mm Petri dishes on sterile Whatman® filter paper submersed in 4 ml of liquid MS medium containing varying amounts of CeCl3, LaCl3 and a combination of CeCl3 and LaCl3 and the plants were transferred to a growth chamber for germination. Once germinated, the plants were removed from the growth chamber and grown for a period of one week under conditions of 16-hours light, 22° C. and 8-hours dark, 18° C. The three to five one week old plants were then removed from the 4-ml liquid medium and transferred to single sterile glass 250 ml flasks containing 15 ml of sterile liquid MS media supplemented with varying amounts of CeCl3, LaCl3 and a combination of CeCl3 and LaCl3. Flasks were then installed on shakers at 50-75 rpm. Plants were continuously grown under conditions of 16-hours light, 22° C. and 8-hours dark, 18° C. The growth medium in each flask was replaced weekly with 25 ml of fresh medium. Following a 3-week period, plants were removed from the flasks and 2 to 3 pairs of fully developed fresh leaves about 2-4 cm long were harvested (cut from the plant) for transformation with Agrobacteria.
Experimental groups of tobacco plants were germinated and grown in a liquid medium culture supplemented with varying amounts of CeCl3, LaCl3 and a combination of CeCl3 and LaCl3. Control plants for the transformation experiments were grown in a standard MS-medium that was not supplemented with CeCl3 or LaCl3.
Four weeks post-germination, the tobacco plants were removed from the liquid medium culture. The leaves from the plants were removed, and several parallel incisions were made along the leaves. The leaves were then vacuum infiltrated with an Agrobacterium suspension culture carrying the plasmid with LUC (gene coding for luciferase) and hygromycin (gene coding for the resistance to hygromycin) genes.
The leaves were vacuum-infiltrated twice for about 5 minutes with the Agrobacterium suspension culture using standard procedures known in the art. Following vacuum infiltration, the tobacco leaves were dried for about 5 to 10 minutes on sterile Whatman® filter paper to remove substantially all excess Agrobacterium cells. The leaves were then placed on plates containing MS medium, and each of the plates were placed for in a room for a period of 3 day at a temperature of 22° C. and exposed to a daily regime of 16-hours of light and 8-hours of dark.
Leaves from each of the experimental groups grown on the different media compositions having varying amounts of CeCl3, LaCl3 and a combination of CeCl3 and LaCl3 and the controls were washed with sterile water to remove the […]. To remove traces of growth medium, leaves were blotted on sterile filter paper and then submersed in a Petri dish laid out with Whatman® filter paper containing re-suspended Agrobacterium cells. Each submersed leaf surface was incised using a sharp surgical blade in parallel along the side veins. The distance between the two parallel incisions was about 5-7 mm. The primary leaf vein and leaf margins were left intact. Once cutting was complete, leaves remained submersed for a period of about 10 minutes. Leaves were then removed from the Petri dish and were blotted dry and placed upside-down on plates of MS medium, and were incubated in a dark room at 22° C. for a period of 3 days. Following incubation, leaves were removed from the plates and rinsed with sterile distilled water, blotted dry and transferred onto solid MS medium containing 0.8 mg/L of indole-3-acetic acid (IAA), and 2 mg/L kinetin for calli induction and regeneration, a combination of 100 mg/L ticarcillin and 3 mg/L potassium clavulanate to control Agrobacterium growth, and 25 mg/L hygromycin for selection for transformed cells. […]

Assay [2] relates to N. tabacum. Put plainly: Stable T-DNA integration: LUC expression test of regenerated plantlets. The format is in vivo, Nicotiana tabacum. The settings on record: for Calli regenerated and transplanted, LUC expression test: LUC negative / Calli regenerated and transplanted, LUC expression test: LUC positive: 20 leaves transformed. How it is done:
The number of transgenic plants, having incorporated a marker gene, regenerated from tobacco calli in various transformation experiments were counted. All the regenerated plants were screened using a luciferase camera. Spraying the transgenic plants with luciferine, the substrate for luciferase enzyme, allowed the identification of transgenic plants expressing the luciferase.
After a period of about 3 to 4 weeks, the number of regenerated calli were determined. Shoots that developed were excised from calli and transferred to a root inducing solid MS medium containing 0.5 mg/L of naphtaleneacetic acid (NAA), 100 mg/L ticarcillin, 3 mg/L potassium clavulanate and 25 mg/L hygromycin. After a 1 to 2 week period of root induction, the plantlets were transplanted to soil.
The effects of CeCl3 on the occurrence of stable plant transformation events in N. tabacum plants were evaluated. These experiments identified transformed plants where the DNA of interest had stably integrated into the plant genome.
The newly appeared plantlets regenerated from the calli of Example 3, showing evidence of root formation, were excised from the calli and transferred to soil.
Plantlets were sprayed with luciferine, and the total number of luciferase-positive plantlets was scored. This allowed the calculation of the transformation frequency, as the number of plants expressing LUC gene to the number of transformed leaves, shown in FIG. 4.
The number of stable transformants re-generated from plants grown on CeCl3 supplemented media and control medium, as detailed in Example 3, were compared.

Setting [3] is: 0.1 μM CeCl3, liquid MS, Table 2 experiment.
[4] abbreviates: 0.1 μM CeCl3, liquid MS, second independent experiment (Table 3).
Where [5] appears, read: 0.5 μM CeCl3, liquid MS, Table 2 experiment.
Setting [6] is: 1.0 μM CeCl3, liquid MS, second independent experiment (Table 3).

`[Ce+3].[Cl-].[Cl-].[Cl-]` [CeCl3, cerium (III) chloride]: the “increase in the number of calli regenerated compared to the control medium” value in assay [1] (0.1 μM CeCl3, Table 2 experiment) came out at 1.8 fold; in assay [1] (0.1 μM CeCl3, second independent experiment (Table 3, FIG. 4)), 2.2 fold; in assay [1] (0.5 μM CeCl3, Table 2 experiment) it was 2.9 fold; in assay [1] (1.0 μM CeCl3, second independent experiment (Table 3, FIG. 4)), 3.3 fold. Also, the “Calli regenerated and transplanted: total” value worked out at 35 in assay [1] (setting [3]), 48 in assay [1] (setting [4]), 56 in assay [1] (setting [5]) and 73 in assay [1] (setting [6]). Moreover, the “difference in numbers of stable transformants versus control media” value in assay [2] (0.1 μM CeCl3, FIG. 4) turned out to be 2.0 fold; in assay [2] (1.0 μM CeCl3, FIG. 4), 3.4 fold. Further, the “Calli regenerated and transplanted, LUC expression test: LUC negative” value in assay [2] (setting [3]) was determined as 13; in assay [2] (setting [4]), 13; in assay [2] (setting [5]), 18; in assay [2] (setting [6]), 18. Further, the “Calli regenerated and transplanted, LUC expression test: LUC positive” value is on record as 23 in assay [2] (setting [3]), 34 in assay [2] (setting [4]), 38 in assay [2] (setting [5]) and 57 in assay [2] (setting [6]). In addition, the Integration frequency in assay [2] (setting [3]) is 1.15 LUC positive plants/leaf trans; in assay [2] (setting [4]), 1.7 LUC positive plants/leaf trans; in assay [2] (setting [5]) it was 1.9 LUC positive plants/leaf trans; in assay [2] (setting [6]), 2.85 LUC positive plants/leaf trans.

The values above are taken from patent US20100251415A1, “Composition and Method for Modulating Plant Transformation” (priority 2009, published 2010).
